From US6344440B1, “Antisecretory factor peptides regulating pathological permeability changes” (Rural Patent Svenska AB, priority 1995, dated 2002)

Assays:
[1] = test system: cholera toxin-induced fluid secretion in rat intestine; conditions: in vivo
[2] = test system: toxin A from Clostridium difficile-induced inflammation and fluid secretion in the intestinal mucosa; assay: Toxin A-induced intestinal inflammation and fluid secretion, rat intestinal loop model; assay type: in vivo; conditions: for toxin A-induced fluid secretion: p<0.01
Experimental: The effect of rAF on inflammation in the intestinal mucosa was also tested in the rat intestinal loop model. […] Half of the rats in each group received 100 ng of rAF intravenously 30 sec prior to the challenge; the other half received PBS buffer as control. After killing the rat, the loops was dissected out, and the middle 2-3 cm part of the loops were frozen on dry ice. The frozen specimens were then sectioned in 8 μm thick sections by use of a Leica cryostat. […] Alkaline phosphatases are expressed by the intestinal epithelial cells and the staining allows an assessment and of the integrity of the intestinal epithelium.

[3] = test system: CT-induced extravascular penetration of Evans blue in the plexus choroideus; conditions: rat, in vivo, iv
[4] = test system: CT-induced extravascular penetration of Evans blue in the small intestine; conditions: rat, in vivo, iv
Toxicity of rAF in rats = assay type: in vivo, rat
Experimental: Toxicity—In order to test the toxicity of rAF it was injected in a high dose, 50 μg per rat.

[5] = test system: cholera toxin-induced Evans blue permeation of intestinal tissue; conditions: rat, in vivo

Which “ED50 (amount causing halfmaximal inhibition)” value [1] does the source give for “N3: recombinant peptide, amino acids 36-51 of SEQ ID NO:2, expressed from basepairs 168-215 (VCHSKTRSNPENNVGL; Human)” here?
The value was 3 pmol.

Which “effect on the toxin response” value [1] does the source give for VCHSKT (Human) [P2] here?
Its value is “no effect”.

With IVCHSKTR (Human) [P1] as the molecule, how does the “effect on toxin A-induced intestinal inflammation and fluid secretion” value ([2]; 0.5 μg replacing the rAF protein) read?
Its value is “achieved the same effect”.

And the “state of intestinal mucosa (alkaline phosphatase staining, FIG. 9)” value ([2]; 0.5 μl of P1 prior to toxin challenge)?
The value was “a conserved and normal intestinal mucosa”.

What about the “ED50 (amount causing halfmaximal inhibition)” value [1] of the same molecule?
The value was 5 pmol.

What about the active dose [1] of the same molecule?
Its active dose is “less than 1 ng”.

What about the “activity (inhibition of cholera secretion)” value [1] of the same molecule?
Its value is “active”.

And the “CT-induced extravascular penetration of Evans blue, plexus choroideus” value [3]?
The value was “inhibits the CT-induced extravascular penetration of Evans blue”.

What about the “CT-induced extravascular penetration of Evans blue, small intestine” value [4] of the same molecule?
The value was “inhibits the CT-induced extravascular penetration of Evans blue”.

With “P3: peptide of amino acids 35-46 of SEQ ID NO:2, solid phase synthesis (IVCHSKTRSNPE; Human)” as the molecule, how does the “ED50 (amount causing halfmaximal inhibition)” value [1] read?
The value was 7 pmol.

And the “activity (inhibition of cholera secretion)” value [1]?
Its value is “active”.

For “N2: recombinant peptide, amino acids 36-80 of SEQ ID NO:2, expressed from basepairs 168-301 (VCHSKTRSNPENNVGLITLANDCEVLTTLTPDTGRILSKLHTVQP; Human)”, which “ED50 (amount causing halfmaximal inhibition)” value [1] is on record?
The value was 6 pmol.

B1: rAF: recombinant human antisecretory factor, SEQ ID No. 2, thrombin-cleaved pure AF-1 protein expressed in E. coli (protein)
chain: MVLESTMVCVDNSEYMRNGDFLPTRLQAQQDAVNIVCHSKTRSNPENNVGLITLANDCEVLTTLTPDTGRILSKLHTVQPKGKITFCTGIRVAHLALKHRQGKNHKMRIIAFVGSPVEDNEKDLVKLAKRLKKEKVNVDIINFGEEEVNTEKLTAFVNTLNGKDGTGSHLVTVPPGPSLADALISSPILAGEGGAMLGLGASDFEFGVDPSADPELALALRVSMEEQRHAGGGARRAARASAAEAGIATTGTEDSDDALLKMTISQQEFGRTGLPDLSSMTEEEQIAYAMQMSLQGAEFGQAESADIDASSAMDTSEPAKEEDDYDVMQDPEFLQSVLENLPGVDPNNEAIRNAMGSLPPRPPRTARRTRRRKTRSETGGKG
modifications: Human
Which toxic reaction (Toxicity of rAF in rats; 50 μg per rat, observation period of one week) does the source give for B1 here?
The toxic reaction was “No obvious toxic reaction”.

And the toxic reactions (Toxicity of rAF in rats; rats given 100 fold higher doses than that causing half-maximal inhibition)?
Its toxic reactions is “no obvious toxic reactions”.

And the “damage of the intestinal mucosa (shedding, necrosis, bleeding)” value ([2]; 100 ng i.v. 30 sec prior to 0.5 μg toxin A, 2.5 and 5 h)?
The value was “no shedding, necrosis or bleeding”.

What about the “toxin A-induced fluid secretion” value ([2]; 100 ng i.v. 30 sec prior to 0.5 μg toxin A, after 2.5 h, control 199±4) of the same molecule?
Its value is 137 ± 5 mg/cm.

What about the “toxin A-induced fluid secretion” value ([2]; 100 ng i.v. 30 sec prior to 0.5 μg toxin A, after 6 h, control 421±3) of the same molecule?
Its value is 203 ± 6 mg/cm.

And the “inhibition of intestinal secretion compared to control animals” value [1]?
The value was “significant inhibition”.

And the “reduction of the fluid secretion compared to controls” value [1]?
The value was “significant reduction”.

And the “% increase of EB-konc” value [5]?
Its value is 0 NS %.

What about the “CT-induced increase of EB extracted from the intestinal tissue” value [5] of the same molecule?
Its value is “prevent this increase”.

And the “EB/g int. tissue × 10^−07” value [5]?
Its value is 29.6 ± 1.5 EB/g int. tissue × 10^−07.

B2: N1: recombinant peptide, amino acids 1-80 of SEQ ID NO:2, expressed from basepairs 63-301 (protein)
chain: MVLESTMVCVDNSEYMRNGDFLPTRLQAQQDAVNIVCHSKTRSNPENNVGLITLANDCEVLTTLTPDTGRILSKLHTVQP
modifications: Human
With B2 as the molecule, how does the “ED50 (amount causing halfmaximal inhibition)” value [1] read?
The value was 4 pmol.
